Read-outs that look alike come from different tables or passages of the source. Each block holds one molecule with its values, some of them ahead of it.
Experiments:
[1] = system: P-glycoprotein (P-gp; MDR1); details: in vitro studies; cited from earlier work
[2] = cited from earlier work
[3] = format: in vivo, human (healthy subjects); details: for AUC(0-inf): AUCinf
[4] = single 60-mg dose, healthy subjects, 14 phase 1 studies; cited from earlier work
[5] = on a molar basis; ref data on file; cited from earlier work
[6] = system: organic anion transporter protein 1B1 (OATP1B1); details: in vitro studies; cited from earlier work
[7] = healthy volunteers; cited from earlier work
[8] = ABCB1 rs1045642 CT, single 60-mg edoxaban, mean±s.d.
[9] = SLCO1B1 rs4149056 C-carriers, single 60-mg edoxaban, mean±s.d.
[10] = SLCO1B1 rs4149056 TT, single 60-mg edoxaban, mean±s.d.
[11] = single 60-mg edoxaban, healthy subjects
[12] = SLCO1B1 rs4149056 C-carriers vs TT homozygotes, with 90% CI
[13] = SLCO1B1 rs4149056 TT, M4 to edoxaban, adjusted for molecular weights, mean±s.d.

- AUC0–24 [3, 8]: 1.671 ± 0.4203 µg·h/mL
- AUCinf [3, 8]: 1.845 ± 0.4178 µg·h/mL
- AUC0–24 [3, 9]: 1.6438 ± 0.3929 µg·h/mL
- AUCinf [3, 9]: 1.8155 ± 0.3824 µg·h/mL
- AUC0–24 [3, 10]: 1.6441 ± 0.4406 µg·h/mL
- AUCinf [3, 10]: 1.8235 ± 0.4449 µg·h/mL
- AUC(0-t) ([3]; both, human, in vivo, 60 mg, AUC0–24, ABCB1 rs1045642 CC, single 60-mg edoxaban, mean±s.d.): 1.61 ± 0.441 µg·h/mL
- AUC(0-t) ([3]; both, human, in vivo, 60 mg, AUC0–24, ABCB1 rs1045642 TT, single 60-mg edoxaban, mean±s.d.): 1.68 ± 0.442 µg·h/mL
- AUC(0-inf) ([3]; both, human, in vivo, 60 mg, ABCB1 rs1045642 CC, single 60-mg edoxaban, mean±s.d.): 1.79 ± 0.45 µg·h/mL
- AUC(0-inf) ([3]; both, human, in vivo, 60 mg, ABCB1 rs1045642 TT, single 60-mg edoxaban, mean±s.d.): 1.86 ± 0.436 µg·h/mL
- AUC(0-t) ([3]; both, human, in vivo, 60 mg, AUClast, ABCB1 rs1045642 CC, single 60-mg edoxaban, fasting, plasma, mean±s.d.): 1.76 ± 0.447 µg·h/mL
- AUC(0-t) ([3]; both, human, in vivo, 60 mg, AUClast, ABCB1 rs1045642 CT, single 60-mg edoxaban, fasting, plasma, mean±s.d.): 1.81 ± 0.417 µg·h/mL
- AUC(0-t) ([3]; both, human, in vivo, 60 mg, AUClast, ABCB1 rs1045642 TT, single 60-mg edoxaban, fasting, plasma, mean±s.d.): 1.82 ± 0.435 µg·h/mL
- AUC(0-t) ([3]; both, human, in vivo, 60 mg, AUClast, SLCO1B1 rs4149056 C-carriers, single 60-mg edoxaban, mean±s.d.): 1.78 ± 0.381 µg·h/mL
- AUC(0-t) ([3]; both, human, in vivo, 60 mg, AUClast, SLCO1B1 rs4149056 TT, single 60-mg edoxaban, mean±s.d.): 1.79 ± 0.443 µg·h/mL
- concentration at 24 h ([3]; both, human, in vivo, 60 mg, C24, ABCB1 rs1045642 CC, plasma concentration at 24 h postdose, single 60-mg edoxaban, mean±s.d.): 0.0125 ± 0.00511 µg/mL
- concentration at 24 h ([3]; both, human, in vivo, 60 mg, C24, ABCB1 rs1045642 TT, plasma concentration at 24 h postdose, single 60-mg edoxaban, mean±s.d.): 0.0123 ± 0.00646 µg/mL
- concentration at 24 h ([3]; both, human, in vivo, 60 mg, C24, SLCO1B1 rs4149056 C-carriers, 24 h postdose, single 60-mg edoxaban, mean±s.d.): 0.0116 ± 0.0048 µg/mL
- concentration at 24 h ([3]; both, human, in vivo, 60 mg, C24, SLCO1B1 rs4149056 TT, 24 h postdose, single 60-mg edoxaban, mean±s.d.): 0.0123 ± 0.0054 µg/mL
- Cmax ([3]; both, human, in vivo, 60 mg, Cmax, ABCB1 rs1045642 TT, single 60-mg edoxaban, mean±s.d.): 0.261 ± 0.101 µg/mL
- effect of ABCB1 C3435T SNP on exposure [3, 11]: does not significantly affect
- effect of SLCO1B1 T521C SNP on exposure [3, 11]: does not influence
Structure (SMILES): CN1CCc2nc(C(=O)N[C@@H]3C[C@@H](C(=O)N(C)C)CC[C@@H]3NC(=O)C(=O)Nc3ccc(Cl)cn3)sc2C1 [Edoxaban, edoxaban]
- substrate of P-glycoprotein [1]: substrate
- absorbed dose renally eliminated [2]: ~ 50%
- absorbed drug eliminated unmodified [2]: ~73%
- tolerability [4]: generally well tolerated

- geometric LS means ratio, AUCinf [3, 12]: 126.9 (90% CI, 117.4–137.1)
- geometric LS means ratio, C24 [3, 12]: 114.9 (90% CI, 104.0–127.0)
- geometric LS means ratio, Cmax [3, 12]: 124.1 (90% CI, 111.9–137.5)
- C24 ([3]; SLCO1B1 rs4149056 C-carriers, 24 h postdose, single 60-mg edoxaban, mean±s.d.): 1.3 ± 0.74 ng/mL
- AUC0–24 [3, 9]: 0.17 ± 0.073 µg·h/mL
- AUCinf [3, 9]: 0.1919 ± 0.0764 µg·h/mL
- AUClast [3, 9]: 0.1846 ± 0.0756 µg·h/mL
- Cmax [3, 9]: 0.0267 ± 0.0136 µg/mL
- C24 ([3]; SLCO1B1 rs4149056 TT, 24 h postdose, single 60-mg edoxaban, mean±s.d.): 1.1 ± 0.57 ng/mL
- MPR AUCinf (metabolite to parent ratio) [3, 13]: 8.7±2.9
- MPR AUClast (metabolite to parent ratio) [3, 13]: 8.7±2.9
- MPR Cmax (metabolite to parent ratio) [3, 13]: 8.8±3.1
- AUC0–24 [3, 10]: 0.1347 ± 0.0572 µg·h/mL
- AUCinf [3, 10]: 0.1502 ± 0.0614 µg·h/mL
- AUClast [3, 10]: 0.1471 ± 0.0607 µg·h/mL
- Cmax [3, 10]: 0.0212 ± 0.0107 µg/mL
- plasma M4 concentration as share of edoxaban levels ([3]; plasma, healthy subjects): < 10%
- effect of SLCO1B1 T521C SNP on exposure [3, 11]: elevated among C-carriers
Structure (SMILES): CN1CCc2nc(C(=O)N[C@@H]3C[C@@H](C(=O)O)CC[C@@H]3NC(=O)C(=O)Nc3ccc(Cl)cn3)sc2C1 [M4]
- share of the total anticoagulant exposure [2]: < 10%
- anticoagulant activity compared with edoxaban [5]: similar
- substrate of OATP1B1 [6]: substrate
- levels on coadministration of cyclosporine or rifampin [7]: increase
